In patent publication US20080286809A1, “Methods” (MEDICAL RESEARCH COUNCIL, priority 2005, published 2008) one finds IC50 data, which are given here for 1 compound.

The target of this assay is T1, WNK1 (Homo sapiens, UniProt Q9H4A3).
T1 construct: made in house
Description: ELISA assay for inhibitors of WNK activity: anti-phospho-SPAK-S373 detection of OSR1(D164A) phosphorylation. Particulars: non-radioactive ELISA; immobilised OSR1(D164A) substrate; anti-phospho-SPAK-S373 antibody; absorbance readout; read-out: IC50, Hypericin Inhibition of WNK1. The class given is biochemical. On the procedure: An example of a non-radioactive assay, suitable for screening of small drug-like compound libraries, has been developed using anti-phospho-SPAK antibodies to detect phosphorylation of WNK substrates SPAK or OSR1 in an ELISA format.
Anti-phospho-SPAK-S373 and anti-phospho-SPAK-T233 were anti-phospho-peptide antibodies raised in sheep for use in western blotting. They were evaluated for use in the ELISA format. Anti-phospho-SPAK-S373 was active in the ELISA with native OSR1 protein. SPAK and OSR1 are interchangeable in the assay as the amino acid sequences are very similar overall and have the same sequence flanking the phosphorylation sites. […] Wild type OSR1 had significant autophosphorylation/ATP hydrolytic activity, and could lead to depletion of substrates during the time course of the reaction.
The assay was performed in maxisorp (Nunc) 384-clear plates. OSR1(D164A), 30 ng/well, was coated overnight at 4° C. in Tris buffered saline (TBS) pH 7.4. […] Plates were read on an absorbance reader at […]. […]
The assay was tolerant to a wide range of ATP concentrations (1-1000 μM) and 1% DMSO (compound storage solvent). Compound interference by autofluorescence, quenching or absorbance is minimised as it is heterogeneous involving several wash steps. […]

Usually pIC50 stands for −log10 of the IC50, conventionally taken in molar units.

pIC50: −log10 of the molar value.

T1 sequence (Q9H4A3 whole entry): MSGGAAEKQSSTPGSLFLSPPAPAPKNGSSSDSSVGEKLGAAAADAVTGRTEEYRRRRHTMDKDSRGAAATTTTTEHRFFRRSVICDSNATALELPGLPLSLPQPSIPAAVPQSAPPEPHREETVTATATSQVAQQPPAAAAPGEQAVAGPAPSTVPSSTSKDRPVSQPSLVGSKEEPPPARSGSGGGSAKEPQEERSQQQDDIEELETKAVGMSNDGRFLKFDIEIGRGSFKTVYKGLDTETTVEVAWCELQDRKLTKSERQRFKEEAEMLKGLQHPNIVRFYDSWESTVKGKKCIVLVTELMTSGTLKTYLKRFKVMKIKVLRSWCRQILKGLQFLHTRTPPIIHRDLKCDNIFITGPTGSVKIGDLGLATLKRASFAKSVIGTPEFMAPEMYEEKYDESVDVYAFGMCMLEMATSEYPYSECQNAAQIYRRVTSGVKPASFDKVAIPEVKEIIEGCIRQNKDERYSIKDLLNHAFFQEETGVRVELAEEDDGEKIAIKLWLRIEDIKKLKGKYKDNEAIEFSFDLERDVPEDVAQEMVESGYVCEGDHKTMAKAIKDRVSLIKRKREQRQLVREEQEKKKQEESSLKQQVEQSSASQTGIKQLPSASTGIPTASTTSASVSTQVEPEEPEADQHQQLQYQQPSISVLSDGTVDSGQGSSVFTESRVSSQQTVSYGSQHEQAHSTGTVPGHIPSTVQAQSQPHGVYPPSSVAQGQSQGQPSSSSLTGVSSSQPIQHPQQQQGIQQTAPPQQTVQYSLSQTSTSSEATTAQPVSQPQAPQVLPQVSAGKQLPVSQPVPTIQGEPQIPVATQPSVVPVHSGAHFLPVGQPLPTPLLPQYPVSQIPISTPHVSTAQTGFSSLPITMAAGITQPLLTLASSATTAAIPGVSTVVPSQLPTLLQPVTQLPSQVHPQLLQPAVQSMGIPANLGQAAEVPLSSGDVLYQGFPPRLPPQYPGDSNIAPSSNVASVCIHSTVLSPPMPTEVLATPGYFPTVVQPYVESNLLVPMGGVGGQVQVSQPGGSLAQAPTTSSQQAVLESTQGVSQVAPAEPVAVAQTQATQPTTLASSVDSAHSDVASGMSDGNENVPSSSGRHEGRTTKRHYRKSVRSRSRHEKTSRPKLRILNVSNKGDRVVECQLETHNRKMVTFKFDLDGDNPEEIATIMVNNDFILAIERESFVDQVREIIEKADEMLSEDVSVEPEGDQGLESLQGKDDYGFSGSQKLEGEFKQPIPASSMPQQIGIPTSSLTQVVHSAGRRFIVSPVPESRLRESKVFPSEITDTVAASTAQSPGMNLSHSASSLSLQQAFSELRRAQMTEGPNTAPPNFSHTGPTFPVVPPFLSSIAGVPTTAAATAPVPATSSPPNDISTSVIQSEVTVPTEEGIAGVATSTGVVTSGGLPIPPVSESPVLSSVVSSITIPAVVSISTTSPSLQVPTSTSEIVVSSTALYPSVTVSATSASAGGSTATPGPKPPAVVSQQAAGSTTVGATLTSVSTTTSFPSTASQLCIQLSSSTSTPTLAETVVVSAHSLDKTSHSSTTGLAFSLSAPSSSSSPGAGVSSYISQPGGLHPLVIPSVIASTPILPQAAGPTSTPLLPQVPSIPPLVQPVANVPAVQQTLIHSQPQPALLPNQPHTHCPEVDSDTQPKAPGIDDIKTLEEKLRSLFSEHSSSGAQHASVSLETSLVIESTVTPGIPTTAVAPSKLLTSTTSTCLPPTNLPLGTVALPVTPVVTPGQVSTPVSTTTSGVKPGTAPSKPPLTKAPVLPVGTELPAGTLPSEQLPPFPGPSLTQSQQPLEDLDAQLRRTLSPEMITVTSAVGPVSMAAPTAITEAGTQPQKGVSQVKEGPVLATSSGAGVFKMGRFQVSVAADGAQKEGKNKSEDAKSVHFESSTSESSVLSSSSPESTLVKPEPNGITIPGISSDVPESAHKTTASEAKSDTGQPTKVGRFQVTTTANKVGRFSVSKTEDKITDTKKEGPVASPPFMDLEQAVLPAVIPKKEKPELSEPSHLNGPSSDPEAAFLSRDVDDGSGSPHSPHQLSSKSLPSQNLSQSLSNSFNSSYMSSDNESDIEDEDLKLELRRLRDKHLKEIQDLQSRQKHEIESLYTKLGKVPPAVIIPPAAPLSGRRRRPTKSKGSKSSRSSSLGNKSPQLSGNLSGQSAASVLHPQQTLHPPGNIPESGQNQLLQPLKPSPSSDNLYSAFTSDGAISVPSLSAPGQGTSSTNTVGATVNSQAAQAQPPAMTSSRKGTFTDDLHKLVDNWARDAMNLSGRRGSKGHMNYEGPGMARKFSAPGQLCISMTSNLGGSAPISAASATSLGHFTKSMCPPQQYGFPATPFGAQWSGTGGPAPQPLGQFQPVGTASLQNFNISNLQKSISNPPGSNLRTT

For `Cc1cc(O)c2c(=O)c3c(O)cc(O)c4c5c(O)cc(O)c6c(=O)c7c(O)cc(C)c8c1c2c(c34)c(c78)c65` [Hypericin], the negative-log IC50 (pIC50) was 5.82.
